Assay results reported in ChEMBL document CHEMBL1144021, “Molecular determinants of the anticonvulsant felbamate binding site in the N-methyl-D-aspartate receptor” (J Med Chem, 2008).
Active and inactive are the calls of the source. The calls are words filed in the database; no cut-off is given here.

Columns and labels:
[1] = test system: Glutamate receptor ionotropic, NMDA 2B (Homo sapiens), Q13224 [T647A]; assay: Inhibition of NR2B receptor M3c T647A mutant expressed in Xenopus oocytes assessed as NMDA current at 0.5 mM relative to control; format: cell-based; conditions: Oocyte
[2] = test system: Glutamate receptor ionotropic, NMDA 2B (Homo sapiens), Q13224 [S548A]; assay: Inhibition of NR2B receptor Pre-M1 S548A mutant expressed in Xenopus oocytes assessed as NMDA current at 0.5 mM relative to control; format: cell-based; conditions: Oocyte
[3] = test system: Glutamate receptor ionotropic, NMDA 2B (Homo sapiens), Q13224 [S645A,I641A]; assay: Binding affinity to NR2B receptor S645A/I641A mutant
[4] = test system: Glutamate receptor ionotropic, NMDA 2B (Homo sapiens), Q13224 [L643A,T647A]; assay: Binding affinity to NR2B receptor L643A/T647A mutant
[5] = test system: Glutamate receptor ionotropic, NMDA 2B (Homo sapiens), Q13224 [M654A]; assay: Inhibition of NR2B receptor post-M3 M654A mutant expressed in Xenopus oocytes assessed as NMDA current at 0.5 mM relative to control; format: cell-based; conditions: Oocyte
[6] = Ratio of Kapp for wild type NR2B receptor to Kapp for NR2B receptor L643A/K234A mutant
[7] = test system: Glutamate receptor ionotropic, NMDA 2B (Homo sapiens), Q13224 [A652T]; assay: Inhibition of NR2B receptor M3c A652T mutant expressed in Xenopus oocytes assessed as NMDA current at 0.5 mM relative to control; format: cell-based; conditions: Oocyte
[8] = test system: Glutamate receptor ionotropic, NMDA 2B (Homo sapiens), Q13224 [N615A]; assay: Inhibition of NR2B receptor M2 N615A mutant expressed in Xenopus oocytes assessed as NMDA current at 0.5 mM relative to control; format: cell-based; conditions: Oocyte
[9] = test system: Glutamate receptor ionotropic, NMDA 2B (Homo sapiens), Q13224 [A648C]; assay: Inhibition of NR2B receptor M3c A648C mutant expressed in Xenopus oocytes assessed as NMDA current at 0.5 mM relative to control; format: cell-based; conditions: Oocyte
[10] = test system: Glutamate receptor ionotropic, NMDA 2B (Homo sapiens), Q13224 [E657A]; assay: Inhibition of NR2B receptor post-M3 E657A mutant expressed in Xenopus oocytes assessed as NMDA current at 0.5 mM relative to control; format: cell-based; conditions: Oocyte
[11] = Ratio of Kapp for wild type NR2B receptor to Kapp for NR2B receptor L643A/S645A mutant
[12] = test system: Glutamate receptor ionotropic, NMDA 2B (Homo sapiens), Q13224 [K234A]; assay: Inhibition of NR2B receptor ATD K234A mutant expressed in Xenopus oocytes assessed as NMDA current at 0.5 mM relative to control; format: cell-based; conditions: Oocyte
[13] = test system: Glutamate receptor ionotropic, NMDA 2B (Homo sapiens), Q13224 [N649A]; assay: Inhibition of NR2B receptor M3c N649A mutant expressed in Xenopus oocytes assessed as NMDA current at 0.5 mM relative to control; format: cell-based; conditions: Oocyte
[14] = Ratio of Kapp for wild type NR2B receptor to Kapp for NR2B receptor S645A/K234A mutant
[15] = test system: Glutamate receptor ionotropic, NMDA 2B (Homo sapiens), Q13224 [D557A]; assay: Inhibition of NR2B receptor Pre-M1 D557A mutant expressed in Xenopus oocytes assessed as NMDA current at 0.5 mM relative to control; format: cell-based; conditions: Oocyte
[16] = test system: Glutamate receptor ionotropic, NMDA 2B (Homo sapiens), Q13224 [D101A]; assay: Inhibition of NR2B receptor ATD D101A mutant expressed in Xenopus oocytes assessed as NMDA current at 0.5 mM relative to control; format: cell-based; conditions: Oocyte
[17] = test system: Glutamate receptor ionotropic, NMDA 2B (Homo sapiens), Q13224 [I641A]; assay: Binding affinity to NR2B receptor M3c I641A mutant
[18] = test system: Glutamate receptor ionotropic, NMDA 2B (Homo sapiens), Q13224 [N616A]; assay: Inhibition of NR2B receptor M2 N616A mutant expressed in Xenopus oocytes assessed as NMDA current at 0.5 mM relative to control; format: cell-based; conditions: Oocyte
[19] = test system: Glutamate receptor ionotropic, NMDA 2B (Homo sapiens), Q13224 [I655A]; assay: Inhibition of NR2B receptor post-M3 I655A mutant expressed in Xenopus oocytes assessed as NMDA current at 0.5 mM relative to control; format: cell-based; conditions: Oocyte
[20] = test system: Glutamate receptor ionotropic, NMDA 2B (Homo sapiens), Q13224 [F653A]; assay: Inhibition of NR2B receptor M3c F653A mutant expressed in Xenopus oocytes assessed as NMDA current at 0.5 mM relative to control; format: cell-based; conditions: Oocyte
[21] = test system: Glutamate receptor ionotropic, NMDA 2B (Homo sapiens), Q13224 [F176A]; assay: Binding affinity to NR2B receptor ATD F176A mutant
[22] = test system: Glutamate receptor ionotropic, NMDA 2B (Homo sapiens), Q13224 [L643A,T103A]; assay: Binding affinity to NR2B receptor L643A/T103A mutant
[23] = Ratio of Kapp for wild type NR2B receptor to Kapp for NR2B receptor ATD D101A mutant
[24] = test system: Glutamate receptor ionotropic, NMDA 2B (Homo sapiens), Q13224 [D104A]; assay: Inhibition of NR2B receptor ATD D104A mutant expressed in Xenopus oocytes assessed as NMDA current at 0.5 mM relative to control; format: cell-based; conditions: Oocyte
[25] = test system: Glutamate receptor ionotropic, NMDA 2B (Homo sapiens), Q13224 [S645A]; assay: Inhibition of NR2B receptor M3c S645A mutant expressed in Xenopus oocytes assessed as NMDA current at 0.5 mM relative to control; format: cell-based; conditions: Oocyte
[26] = test system: Glutamate receptor ionotropic, NMDA 2B (Homo sapiens), Q13224 [V558A]; assay: Inhibition of NR2B receptor Pre-M1 V558A mutant expressed in Xenopus oocytes assessed as NMDA current at 0.5 mM relative to control; format: cell-based; conditions: Oocyte
[27] = test system: Glutamate receptor ionotropic, NMDA 2B (Homo sapiens), Q13224 [L643C,T647A]; assay: Binding affinity to NR2B receptor L643C/T647A mutant
[28] = Ratio of Kapp for wild type NR2B receptor to Kapp for NR2B receptor M3c I641A mutant
[29] = target: Glutamate receptor ionotropic, NMDA 2B (Homo sapiens) (UniProt Q13224); assay: Binding affinity to NR2B receptor
[30] = test system: Glutamate receptor ionotropic, NMDA 2B (Homo sapiens), Q13224 [Q656A]; assay: Inhibition of NR2B receptor post-M3 Q656A mutant expressed in Xenopus oocytes assessed as NMDA current at 0.5 mM relative to control; format: cell-based; conditions: Oocyte
[31] = Ratio of Kapp for wild type NR2B receptor to Kapp for NR2B receptor T647A/K234A mutant
[32] = test system: Glutamate receptor ionotropic, NMDA 2B (Homo sapiens), Q13224 [E658A]; assay: Inhibition of NR2B receptor post-M3 E658A mutant expressed in Xenopus oocytes assessed as NMDA current at 0.5 mM relative to control; format: cell-based; conditions: Oocyte
[33] = Ratio of Kapp for wild type NR2B receptor to Kapp for NR2B receptor T647A/S645A mutant

Sequence of Glutamate receptor ionotropic, NMDA 2B (Homo sapiens), Q13224 [A648C] (Q13224 whole entry A648C): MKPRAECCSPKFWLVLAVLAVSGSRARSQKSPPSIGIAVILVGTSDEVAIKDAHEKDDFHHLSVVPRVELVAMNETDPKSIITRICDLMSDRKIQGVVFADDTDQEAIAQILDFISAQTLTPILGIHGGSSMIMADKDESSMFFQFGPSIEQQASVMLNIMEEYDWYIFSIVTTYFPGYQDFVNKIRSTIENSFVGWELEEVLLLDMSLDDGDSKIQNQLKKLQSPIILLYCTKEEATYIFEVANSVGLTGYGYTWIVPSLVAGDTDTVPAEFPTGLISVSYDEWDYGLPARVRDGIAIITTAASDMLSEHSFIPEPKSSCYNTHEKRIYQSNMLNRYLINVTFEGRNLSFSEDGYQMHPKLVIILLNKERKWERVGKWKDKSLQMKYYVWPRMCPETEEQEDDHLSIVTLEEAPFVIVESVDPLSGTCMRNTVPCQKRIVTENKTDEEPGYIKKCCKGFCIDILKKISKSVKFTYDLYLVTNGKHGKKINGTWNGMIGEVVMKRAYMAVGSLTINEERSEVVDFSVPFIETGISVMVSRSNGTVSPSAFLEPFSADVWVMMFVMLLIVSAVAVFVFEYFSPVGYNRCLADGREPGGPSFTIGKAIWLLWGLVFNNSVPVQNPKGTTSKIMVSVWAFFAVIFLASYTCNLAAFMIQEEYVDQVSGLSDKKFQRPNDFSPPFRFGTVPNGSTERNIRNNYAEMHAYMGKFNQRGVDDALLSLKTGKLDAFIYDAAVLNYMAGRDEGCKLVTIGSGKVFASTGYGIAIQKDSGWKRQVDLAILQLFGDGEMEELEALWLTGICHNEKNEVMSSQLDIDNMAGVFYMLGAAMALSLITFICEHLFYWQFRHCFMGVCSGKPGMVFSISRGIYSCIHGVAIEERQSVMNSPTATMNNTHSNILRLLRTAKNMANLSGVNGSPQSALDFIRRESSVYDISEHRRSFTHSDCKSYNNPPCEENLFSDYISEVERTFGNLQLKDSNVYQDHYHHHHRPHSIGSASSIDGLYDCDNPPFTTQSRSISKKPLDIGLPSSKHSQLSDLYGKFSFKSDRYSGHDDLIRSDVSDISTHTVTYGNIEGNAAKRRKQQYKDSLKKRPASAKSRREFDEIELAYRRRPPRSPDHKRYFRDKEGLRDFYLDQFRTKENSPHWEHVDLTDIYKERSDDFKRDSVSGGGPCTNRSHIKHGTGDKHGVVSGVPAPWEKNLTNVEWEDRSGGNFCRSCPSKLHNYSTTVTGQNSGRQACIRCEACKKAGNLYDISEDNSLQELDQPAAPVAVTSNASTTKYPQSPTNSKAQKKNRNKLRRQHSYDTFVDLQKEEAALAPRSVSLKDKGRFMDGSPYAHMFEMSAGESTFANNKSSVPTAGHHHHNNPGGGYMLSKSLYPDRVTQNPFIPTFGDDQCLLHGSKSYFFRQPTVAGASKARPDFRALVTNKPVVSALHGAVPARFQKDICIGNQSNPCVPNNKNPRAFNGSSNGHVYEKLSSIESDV
Sequence of Glutamate receptor ionotropic, NMDA 2B (Homo sapiens) (Q13224 27-1484 limits assumed): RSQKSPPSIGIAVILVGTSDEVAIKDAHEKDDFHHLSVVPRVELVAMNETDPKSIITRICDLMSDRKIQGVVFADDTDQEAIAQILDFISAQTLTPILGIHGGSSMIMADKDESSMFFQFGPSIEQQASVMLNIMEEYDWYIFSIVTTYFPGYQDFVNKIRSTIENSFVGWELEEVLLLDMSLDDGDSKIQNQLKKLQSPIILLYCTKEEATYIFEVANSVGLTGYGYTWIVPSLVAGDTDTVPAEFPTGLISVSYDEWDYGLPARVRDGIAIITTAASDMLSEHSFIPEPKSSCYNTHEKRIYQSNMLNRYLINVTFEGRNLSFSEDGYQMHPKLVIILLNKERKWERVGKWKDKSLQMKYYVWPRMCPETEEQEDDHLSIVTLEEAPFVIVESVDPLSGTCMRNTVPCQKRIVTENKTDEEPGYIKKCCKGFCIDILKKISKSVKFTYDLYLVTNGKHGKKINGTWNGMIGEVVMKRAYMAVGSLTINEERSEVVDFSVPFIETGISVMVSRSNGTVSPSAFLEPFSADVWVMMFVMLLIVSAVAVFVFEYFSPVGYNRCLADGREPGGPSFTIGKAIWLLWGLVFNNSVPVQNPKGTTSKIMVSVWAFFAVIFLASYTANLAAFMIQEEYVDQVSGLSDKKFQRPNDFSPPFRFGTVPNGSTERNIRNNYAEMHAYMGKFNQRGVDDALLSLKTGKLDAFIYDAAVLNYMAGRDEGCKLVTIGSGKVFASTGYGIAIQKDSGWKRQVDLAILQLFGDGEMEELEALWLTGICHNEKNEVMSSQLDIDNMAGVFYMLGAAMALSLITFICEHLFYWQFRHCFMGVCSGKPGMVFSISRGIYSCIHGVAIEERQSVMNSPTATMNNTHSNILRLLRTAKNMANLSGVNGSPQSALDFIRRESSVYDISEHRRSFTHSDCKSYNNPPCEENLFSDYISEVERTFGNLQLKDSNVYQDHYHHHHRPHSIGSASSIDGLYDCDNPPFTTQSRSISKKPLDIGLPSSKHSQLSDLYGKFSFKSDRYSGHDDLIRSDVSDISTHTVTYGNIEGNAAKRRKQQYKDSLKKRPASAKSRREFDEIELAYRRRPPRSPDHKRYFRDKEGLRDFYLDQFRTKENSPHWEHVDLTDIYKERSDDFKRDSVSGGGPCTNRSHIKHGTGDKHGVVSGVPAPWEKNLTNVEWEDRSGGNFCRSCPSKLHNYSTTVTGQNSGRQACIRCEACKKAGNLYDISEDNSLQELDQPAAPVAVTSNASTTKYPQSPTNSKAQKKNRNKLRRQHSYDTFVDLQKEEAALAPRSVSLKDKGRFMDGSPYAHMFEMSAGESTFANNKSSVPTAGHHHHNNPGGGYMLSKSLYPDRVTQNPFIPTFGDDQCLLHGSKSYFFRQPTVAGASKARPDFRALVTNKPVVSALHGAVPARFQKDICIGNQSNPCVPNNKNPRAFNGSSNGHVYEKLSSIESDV
Sequence of Glutamate receptor ionotropic, NMDA 2B (Homo sapiens), Q13224 [N649A] (Q13224 whole entry N649A): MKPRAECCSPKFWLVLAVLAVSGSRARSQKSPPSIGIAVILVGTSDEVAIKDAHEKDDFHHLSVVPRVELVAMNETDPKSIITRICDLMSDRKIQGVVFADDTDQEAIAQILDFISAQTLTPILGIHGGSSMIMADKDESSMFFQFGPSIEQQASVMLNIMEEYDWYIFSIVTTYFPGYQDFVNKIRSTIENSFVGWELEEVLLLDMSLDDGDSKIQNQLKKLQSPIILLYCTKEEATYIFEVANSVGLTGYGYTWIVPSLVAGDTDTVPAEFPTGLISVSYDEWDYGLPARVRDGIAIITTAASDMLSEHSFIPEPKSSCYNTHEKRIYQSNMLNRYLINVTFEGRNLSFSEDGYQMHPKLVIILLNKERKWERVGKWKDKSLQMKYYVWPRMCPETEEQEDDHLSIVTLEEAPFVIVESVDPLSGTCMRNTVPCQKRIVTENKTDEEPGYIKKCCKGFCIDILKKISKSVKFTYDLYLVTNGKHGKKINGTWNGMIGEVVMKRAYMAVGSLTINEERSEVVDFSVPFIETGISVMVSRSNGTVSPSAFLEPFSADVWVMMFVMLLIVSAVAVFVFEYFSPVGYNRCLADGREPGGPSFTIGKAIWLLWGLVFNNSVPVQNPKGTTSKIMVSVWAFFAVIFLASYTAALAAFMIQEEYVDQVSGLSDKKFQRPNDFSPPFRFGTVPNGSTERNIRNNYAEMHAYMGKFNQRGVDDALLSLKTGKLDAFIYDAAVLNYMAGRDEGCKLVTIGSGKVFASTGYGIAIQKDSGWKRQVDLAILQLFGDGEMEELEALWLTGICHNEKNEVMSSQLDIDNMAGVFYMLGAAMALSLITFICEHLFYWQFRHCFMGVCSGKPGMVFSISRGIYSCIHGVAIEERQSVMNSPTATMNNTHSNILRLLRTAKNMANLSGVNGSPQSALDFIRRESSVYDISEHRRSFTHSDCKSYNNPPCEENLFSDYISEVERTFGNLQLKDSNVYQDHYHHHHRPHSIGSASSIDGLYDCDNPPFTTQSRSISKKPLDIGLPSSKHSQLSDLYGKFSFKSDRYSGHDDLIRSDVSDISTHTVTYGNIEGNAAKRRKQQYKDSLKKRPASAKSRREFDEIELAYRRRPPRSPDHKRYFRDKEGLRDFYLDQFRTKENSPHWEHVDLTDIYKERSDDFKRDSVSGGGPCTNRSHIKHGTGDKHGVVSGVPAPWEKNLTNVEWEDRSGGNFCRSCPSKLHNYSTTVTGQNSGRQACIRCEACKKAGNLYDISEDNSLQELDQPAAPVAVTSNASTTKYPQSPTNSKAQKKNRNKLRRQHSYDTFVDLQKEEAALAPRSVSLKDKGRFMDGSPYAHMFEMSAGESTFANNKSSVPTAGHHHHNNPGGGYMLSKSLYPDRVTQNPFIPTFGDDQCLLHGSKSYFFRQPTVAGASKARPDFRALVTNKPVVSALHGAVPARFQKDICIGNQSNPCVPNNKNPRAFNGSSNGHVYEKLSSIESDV

NC(=O)OCC(COC(N)=O)c1ccccc1
inhibition [1]: 89% | inhibition [2]: 76% | Kapp [3]: 4.43 mM | Kapp [4]: 34.5 mM | inhibition [5]: 71% | Ratio Ki(app) [6]: 7.3 | inhibition [7]: 83% | inhibition [8]: 66% | inhibition [9]: 73% | inhibition [10]: 61% | Ratio Ki(app) [11]: 7.7 | inhibition [12]: 85% | Activity [13]: inactive | Ratio Ki(app) [14]: 8.2 | inhibition [15]: 75% | inhibition [16]: 83% | Kapp [17]: 2.45 mM | inhibition [18]: 72% | inhibition [19]: 76% | Activity [20]: inactive | Kapp [21]: 2.77 mM | Kapp [22]: 5.07 mM | Ratio Ki(app) [23]: 3.2 | inhibition [24]: 75% | inhibition [25]: 85% | inhibition [26]: 71% | Kapp [27]: 18.6 mM | Ratio Ki(app) [28]: 2.8 | Kapp [29]: 0.87 mM | inhibition [30]: 70% | Ratio Ki(app) [31]: 8 | inhibition [32]: 65% | Ratio Ki(app) [33]: 8.1
